Experiments:
[1] = in vivo
Procedure: The response was evaluated by the blueing spot at 15 minutes after the dye injection.

papain = target: T1, papain (Carica papaya, UniProt P00784); experiment: Papain inhibitory activity (method of K. Hanada et al.); format: biochemical; settings: amount of inhibitor for 50% inhibition; papain 80 μg/ml, Sigma, twice crystallized
T1 construct: purchased Sigma Chem. Co
T1 sequence (P00784 134-345): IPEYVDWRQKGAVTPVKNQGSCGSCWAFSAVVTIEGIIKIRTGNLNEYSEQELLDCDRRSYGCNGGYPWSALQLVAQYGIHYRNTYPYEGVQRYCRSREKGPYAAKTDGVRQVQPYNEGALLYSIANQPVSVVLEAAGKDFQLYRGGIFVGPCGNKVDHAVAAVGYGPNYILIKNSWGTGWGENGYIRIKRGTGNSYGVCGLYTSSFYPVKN
Procedure: Papain inhibitory activity of the compounds of the present invention was assayed by the method of K. Hanada et al [Argic. Biol. Chem., 42, (3)523(1978)] using papain (80 μg/ml, Sigma Chem. Co.) after twice crystallization.

[2] = target: T2, CANP prepared from a muscle of hereditary muscular dystrophy chicken (Gallus gallus, UniProt P00789); experiment: CANP inhibitory activity (method of Ishiura et al.); format: biochemical; settings: 50% inhibition as molar ratio to the enzyme
T2 construct: CANP prepared from a muscle of hereditary muscular dystrophy chicken; from tissue; host or cells: muscle of hereditary muscular dystrophy chicken
T2 sequence (P00789 1-705): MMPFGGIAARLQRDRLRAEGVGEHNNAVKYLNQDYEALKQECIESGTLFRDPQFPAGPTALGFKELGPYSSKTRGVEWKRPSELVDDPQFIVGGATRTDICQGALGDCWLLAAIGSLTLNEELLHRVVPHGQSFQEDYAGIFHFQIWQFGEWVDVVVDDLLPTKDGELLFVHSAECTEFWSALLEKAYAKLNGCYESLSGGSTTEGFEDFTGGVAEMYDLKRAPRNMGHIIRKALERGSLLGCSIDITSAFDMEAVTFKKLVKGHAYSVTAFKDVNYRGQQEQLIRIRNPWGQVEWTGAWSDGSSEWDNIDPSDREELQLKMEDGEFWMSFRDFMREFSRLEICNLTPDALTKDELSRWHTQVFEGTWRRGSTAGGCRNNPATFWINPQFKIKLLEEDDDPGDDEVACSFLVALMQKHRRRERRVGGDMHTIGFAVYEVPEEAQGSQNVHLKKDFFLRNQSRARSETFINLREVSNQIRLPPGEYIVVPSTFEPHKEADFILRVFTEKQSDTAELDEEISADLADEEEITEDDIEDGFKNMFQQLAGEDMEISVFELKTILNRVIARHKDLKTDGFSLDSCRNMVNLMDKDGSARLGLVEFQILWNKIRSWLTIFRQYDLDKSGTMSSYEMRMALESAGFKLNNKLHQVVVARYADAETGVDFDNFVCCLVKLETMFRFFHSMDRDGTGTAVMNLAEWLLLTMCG
Procedure: Their muscular dystrophy inhibitory activity was assayed by the method of Ishiura et al., [J. Biochem., 84, 225 (1978)] using CANP prepared from a muscle of hereditary muscular dystrophy chicken, and the resulting value for 50% inhibition in the molar ratios for the enzyme expressed as ID50 (mole/mole) is shown in Table 1 below.

[3] = Concentration in rat plasma after subcutaneous administration; format: in vivo; settings: sc, rats, 50 mg/kg, an hour after administration
Procedure: The compounds of the present invention are better absorbed by the subcutaneous route in mammals such as rats or rabbits, as compared with the epoxysuccinic acid derivatives of the German Patent Laid Open Application described above and Chemical Abstracts, 87, 68129a (1977). To determine absorption, these compounds were administered subcutaneously to rats at a dose of 50 mg/kg, and the concentration of the test compound in rat plasma at an hour after the administration is shown in following Table 1.

SMILES	Acceleration of vascular permeability, Relative effect (%) to E-64 [1] [%]	Papain inhibitory activity ID50 (papain) [µg]	CANP Inhibitory Activity ID50 (mole/mole) [2] [mole/mole]	concentration at 1 h [3] [ng/mL]
CC(C)C[C@H](NC(=O)[C@H]1O[C@@H]1C(=O)O)C(=O)NCCCCN=C(N)N [Compound E-64, N-[N-(L-3-trans-carboxyoxirane-2-carbonyl)-L-leucyl]agmatine, reference compound]	100.0	–	–	–
CC(C)C[C@H](NC(=O)C1OC1C(=O)O)C(=O)NCCCCCCCNC(=O)OCc1ccccc1 (mixture of isomers) [Compound 3, N-[N-(DL-3-trans-carboxyoxirane-2-carbonyl)-L-leucyl]-N'-benzyloxycarbonyl-1,7-diaminoheptane]	2.4	0.203	20	11000
CCOC(=O)C1OC1C(=O)N[C@@H](CC(C)C)C(=O)NCCCCNC(=O)OCc1ccccc1 (stereo partly drawn) [F, N--[N--(DL3-trans-ethoxycarbonyloxirane-2-carbonyl)-L-leucyl] N'--benzyloxycarbonyl1,4-diaminobutane, reference compound]	–	–	480	< 1000
CC(C)C[C@H](NC(=O)C1OC1C(=O)O)C(=O)NCCCCCN (mixture of isomers) [Compound 2, N-[N-(DL-3-trans-carboxyoxirane-2-carbonyl)-L-leucyl]-1,5-diaminopentane]	2.3	0.105	54	20000
CC(C)C[C@H](NC(=O)[C@H]1O[C@@H]1C(=O)O)C(=O)NCCCCCCCN [Compound 1, N-[N-(L-3-trans-carboxyoxirane-2-carbonyl)-L-leucyl]-1,7-diaminoheptane]	2.8	0.103	33	15000

From patent US4418075A, “Epoxysuccinyl amino acid derivatives” (Taisho Pharmaceutical Co., Ltd., priority 1979, dated 1983)
